{
  "source": "patent US9943504B2",
  "about": "“Arginine methyltransferase inhibitors and uses thereof” (Epizyme, Inc., priority 2013, dated 2018)",
  "tested_on": "mono-methyl arginine in RKO cells",
  "assay": "RKO Methylation Assay (In Cell Western)",
  "assay_type": "cell-based",
  "conditions": "Homo sapiens, 72 hours, percent activation, read-out: RGG ICW EC30",
  "text": "RKO adherent cells were purchased from ATCC (American Type Culture Collection), Manassas, Va., USA. DMEM/Glutamax medium, penicillin-streptomycin, heat inactivated fetal bovine serum, 0.05% trypsin and D-PBS were purchased from Life Technologies, Grand Island, N.Y., USA. Odyssey blocking buffer, 800CW goat anti-rabbit IgG (H+L) antibody, and Licor Odyssey infrared scanner were purchased from Licor Biosciences, Lincoln, Nebr., USA. Mono-methyl arginine antibody was purchased from Cell Signaling Technology, Danvers, Mass., USA. Methanol was purchased from VWR, Franklin, Mass., USA. 10% Tween 20 was purchased from KPL, Inc., Gaithersburg, Md., USA. DRAQ5 was purchased from Biostatus Limited, Leicestershire, UK.\nRKO adherent cells were maintained in growth medium (DMEM/Glutamax medium supplemented with 10% v/v heat inactivated fetal bovine serum and 100 units/mL penicillin-streptomycin) and cultured at 37° C. under 5% CO2.\nCell Treatment, in Cell Western (ICW) for Detection of Mono-Methyl Arginine and DNA Content.\nRKO cells were seeded in assay medium at a concentration of 20,000 cells per mL to a poly-D-lysine coated 384 well culture plate (BD Biosciences 356697) with 50 μL per well. Compound (100 nL) from a 96-well source plate was added directly to 384 well cell plate. Plates were incubated at 37° C., 5% CO2 for 72 hours. After three days of incubation, plates were brought to room temperature outside of the incubator for ten minutes and blotted on paper towels to remove cell media. 50 μL of ice cold 100% methanol was added directly to each well and incubated for 30 min at room temperature. After 30 min, plates were transferred to a Biotek EL406 plate washer and washed 2 times with 100 μL per well of wash buffer (1×PBS). Next 60 μL per well of Odyssey blocking buffer (Odyssey Buffer with 0.1% Tween 20 (v/v)) were added to each plate and incubated 1 hour at room temperature. Blocking buffer was removed and 20 μL per well of primary antibody was added (mono-methyl arginine diluted 1:200 in Odyssey buffer with 0.1% Tween 20 (v/v)) and plates were incubated overnight (16 hours) at 4° C. Plates were washed 5 times with 100 μL per well of wash buffer. Next 20 μL per well of secondary antibody was added (1:200 800CW goat anti-rabbit IgG (H+L) antibody, 1:1000 DRAQ5 (Biostatus limited) in Odyssey buffer with 0.1% Tween 20 (v/v)) and incubated for 1 hour at room temperature. The plates were washed 5 times with 100 μL per well wash buffer then 2 times with 100 μL per well of water. Plates were allowed to dry at room temperature then imaged on the Licor Odyssey machine which measures integrated intensity at 700 nm and 800 nm wavelengths. Both 700 and 800 channels were scanned.\nFirst, the ratio for each well was determined by:\nEach plate included fourteen control wells of DMSO only treatment (minimum activation) as well as fourteen control wells for maximum activation treated with 20 μM of a reference compound. The average of the ratio values for each control type was calculated and used to determine the percent activation for each test well in the plate. Reference compound was serially diluted three-fold in DMSO for a total of nine test concentrations, beginning at 20 μM. Percent activation was determined and EC30 curves were generated using triplicate wells per concentration of compound.",
  "data": [
    {"smiles": "CN(CCN)Cc1n[nH]c2cccc(OCc3ccccc3)c12", "note": "[Compound 1]", "values": [
      {"measurement": "EC30", "value": "≤ 3000", "unit": "nM"}
    ]}
  ]
}
